Publication PMC6470885 (Molecules, 2019)
Where “and” joins values, the source holds several entries; their conditions need not be identical. Identical values can stand only once. Non-standard residues stand in square brackets, D forms with d. Residues, ends and D or L forms follow the SMILES beside them. *: point of attachment. Palmitoyl = CCCCCCCCCCCCCCCC(=O)*; PEG4 = NCCOCCOCCOCCOCCC(=O)O

How the values were obtained:
[1] = Serum half-life and pharmacokinetic parameters in mice
Procedure: (§1) Evaluation of ex vivo anti-HIV-1 activity of a peptide in a mouse model was performed as described recently. This mouse experiment was conducted under ethical guidelines and approved by the Institutional Laboratory Animal Care and Use Committee at Fudan University (20160927-2). ICR mice used for this study were bred at the Department of Laboratory Animal Science of Fudan University. Briefly, 5 mg/kg of a peptide were intraperitoneally (i.p.) injected into four female ICR mice (8 weeks). […] Anti-HIV-1 activities of the mouse serum samples were determined in the same way as described above. The highest dilution-fold of the serum causing 50% inhibition of HIV-1IIIB infection (IC50) was calculated.

[2] = test system: HIV-1 HP23-resistant strains; conditions: ratio of IC50s
Procedure: (§3) For each well of a 96-well plate, 50 μL of a peptide were mixed with 50 μL of 100 × TCID50 (50% tissue culture infective doses) of HIV-1 live virus and incubated at 37 °C for 30 min. Afterwards, 2 × 10^4 MT-2 (for X4 virus) or CEMx174 5.25 M7 cells (for R5 virus) were added. After overnight culture, the supernatant was replaced with fresh RPMI-1640 medium containing 10% fetal bovine serum (FBS). After further culture at 37 °C for three days, 50 μL of the culture medium were collected and mixed with equal volume of 5% (v/v) Triton X-100. The p24 antigen, which represents HIV-1 quantity, was detected by ELISA. Briefly, the collected mixtures were added to a plate coated with anti-HIV Immune Globulin (HIVIG) from the NIH AIDS Reagent Program. Anti-p24 mAb 183, rabbit anti-mouse IgG-HRP (Dako, Glostrup, Denmark) and substrate 3,3,5,5-TMB (Sigma-Aldrich, New York, NY) were added and washed away sequentially. The absorbance at 450 nm (A450) was determined by a Multi-Detection Microplate Reader (Ultra 384, Tecan, Tokyo, Japan). IC50s were calculated using Calcusyn software (Biosoft, Ferguson, MO), and the lines of best fit were drawn using GraphPad Prism 8 software (La Jolla, CA).

[3] = test system: HIV-1 mutants resistant to T20, T2635, or HP23; assay type: cell-based; conditions: ratio of IC50s
Procedure: as §3

[4] = test system: cell-cell fusion between H9/IIIB cells and MT-2 cells; assay: HIV-1-mediated cell-cell fusion (dye transfer assay); assay type: cell-based; conditions: ratio of IC50s
Procedure: A dye transfer assay was performed to detect HIV-1 Env-mediated cell-cell fusion as described previously. Briefly, for each well of a 96-well plate, 2 × 10^3 H9/IIIB cells labeled with the fluorescent reagent Calcein AM (Molecular Probes, Inc., Eugene, Oregon) were incubated with a CHR-peptide at 37 °C for 30 min. Afterwards, 10^4 MT-2 cells were added and incubated at 37 °C for 2 h. The fused and unfused Calcein-labeled H9/IIIB cells were counted under an inverted fluorescence microscope (Zeiss, Oberkochen, Germany). The IC50 values were calculated by using the Calcusyn computer program (Biosoft, Ferguson, MO).

[5] = test system: HIV-1IIIB (X4 virus); assay: Virus wash and nonwash assay; assay type: cell-based; conditions: HIV-1IIIB incubated with peptide 4 °C 30 min, unbound peptide washed away, then MT-2 cells
Procedure: To determine whether a peptide binds with the viral particle in order to execute its anti-HIV-1 activity, virus wash and nonwash assays were performed as previously described. Briefly, HIV-1IIIB (50 × TCID50) were incubated with a peptide at 4 °C for 30 min, followed by washes of the pretreated viral particles to remove the unbound peptide (control: without washes) before being added to 2 × 10^4 MT-2 cells. After culture at 37 °C overnight, the supernatant was replaced by fresh RPMI-1640 medium containing 10% FBS. The inhibitory activity of the virus-bound peptide in the wash group and free peptide in the nonwash group was determined as described above.

[6] = test system: HIV-1 T20-resistant strains; conditions: ratio of IC50s
Procedure: (§4) Inhibitory activities of peptides on infection by HIV-1 X4 strain IIIB, R5 strain Bal, and T20-, T2635-, HP23-resistant strains were determined as previously described [42]. For each well of a 96-well plate, 50 μL of a peptide were mixed with 50 μL of 100 × TCID50 (50% tissue culture infective doses) of HIV-1 live virus and incubated at 37 °C for 30 min. Afterwards, 2 × 10^4 MT-2 (for X4 virus) or CEMx174 5.25 M7 cells (for R5 virus) were added. After overnight culture, the supernatant was replaced with fresh RPMI-1640 medium containing 10% fetal bovine serum (FBS). After further culture at 37 °C for three days, 50 μL of the culture medium were collected and mixed with equal volume of 5% (v/v) Triton X-100. The p24 antigen, which represents HIV-1 quantity, was detected by ELISA. Briefly, the collected mixtures were added to a plate coated with anti-HIV Immune Globulin (HIVIG) from the NIH AIDS Reagent Program. Anti-p24 mAb 183, rabbit anti-mouse IgG-HRP (Dako, Glostrup, Denmark) and substrate 3,3,5,5-TMB (Sigma-Aldrich, New York, NY) were added and washed away sequentially. The absorbance at 450 nm (A450) was determined by a Multi-Detection Microplate Reader (Ultra 384, Tecan, Tokyo, Japan). IC50s were calculated using Calcusyn software (Biosoft, Ferguson, MO), and the lines of best fit were drawn using GraphPad Prism 8 software (La Jolla, CA).

[7] = test system: MT-2 cells; assay: Cytotoxicity, CCK8 assay, MT-2 cells
Procedure: (§2) A peptide at graded concentration was incubated with 2 × 10^5/mL cells at 37 °C for 3 days before adding 10 μL of CCK8 reagent (Sigma-Aldrich). After another round of incubation at 37 °C for 2 h, A450 was measured with the Multi-Detection Microplate Reader. Cell viability was calculated by […].

[8] = test system: HIV-1 T2635-resistant strains; conditions: ratio of IC50s
Procedure: as §3

[9] = test system: M7 cells; assay: Cytotoxicity, CCK8 assay, M7 cells
Procedure: as §2

[10] = test system: HIV-1Bal (R5 virus); assay type: cell-based; conditions: ratio of IC50s
Procedure: as §4

[11] = test system: HIV-1IIIB (X4 virus); assay type: cell-based; conditions: ratio of IC50s
Procedure: as §4

[12] = test system: HIV-1IIIB; assay: Ex vivo anti-HIV-1 activity of sera of peptide-treated mice; assay type: in vivo; conditions: ICR mice, 5 mg/kg i.p.; serum tested against HIV-1IIIB
Procedure: as §1

[13] = Mice (i.p., n = 3), 5 mg/kg, concentration estimated from serum anti-HIV-1 activity, MODFIT
[14] = concentrations as high as 8 μM, 3 days, 37 °C, CCK8

## CCCCCCCCCCCCCCCC(=O)NCCCC[C@H](NC(=O)CCOCCOCCOCCOCCNC(=O)CNC(=O)[C@H](CO)NC(=O)CNC(=O)[C@H](CC(C)C)NC(=O)[C@H](CC(=O)O)NC(=O)[C@@H](NC(=O)[C@H](CCC(N)=O)NC(=O)[C@H](CCC(N)=O)NC(=O)[C@H](CC(N)=O)NC(=O)[C@H](CCC(N)=O)NC(=O)[C@H](CO)NC(=O)[C@H](CCCCN)NC(=O)[C@H](CCCCN)NC(=O)[C@H](CC(C)C)NC(=O)[C@@H](NC(=O)[C@H](CCC(=O)O)NC(=O)[C@H](CCC(=O)O)NC(=O)[C@@H](NC(=O)[C@H](CCCCN)NC(=O)[C@H](CCCCN)NC(=O)[C@@H](NC(=O)[C@H](Cc1ccc(O)cc1)NC(=O)[C@H](CCC(=O)O)NC(=O)[C@H](CCC(=O)O)NC(=O)[C@@H](NC(=O)[C@H](CCCCN)NC(=O)[C@H](CCCCN)NC(=O)[C@H](CCC(=O)O)NC(=O)[C@H](Cc1c[nH]c2ccccc12)NC(=O)[C@H](CCC(=O)O)NC(=O)[C@H](CCC(=O)O)NC(=O)[C@H](Cc1c[nH]c2ccccc12)NC(=O)[C@@H](NC(=O)[C@H](CCSC)NC(=O)[C@@H](N)CCC(=O)O)[C@@H](C)O)[C@@H](C)CC)[C@@H](C)CC)[C@@H](C)CC)[C@@H](C)CC)[C@@H](C)CC)C(=O)O [YIK-C16] (H-EMTWEEWEKKIEEYIKKIEEILKKSQNQQIDLGSG[PEG4]K(Palmitoyl)-OH; N-terminus and C-terminus assumed)
[1]; [13]
  AUC0-15h: 14900 ± 3800 ng·h/mL
  AUCINF_obs: 15000 ± 3700 ng·h/mL
  Cl_F_obs/Cl_obs: 5.773 ± 1.27 mL/min/kg
  Cmax: 2200 ± 100 ng/mL
  MRTlast: 9.5 ± 5.1 h
  Tmax: 4.0 ± 1.7 h
  Vz_F_obs/Vz_obs: 2.7388 ± 0.7407 L/kg
  t½: 5.9 ± 3.2 h
[1]; mice, i.p.
  fold longer serum half-life than HP23-E6-IDL: ~5.9 fold
[2]
  fold more potent than HP23-E6-IDL for inhibiting infection by HIV-1 HP23-resistant strains: ~26 fold
[3]
  fold more effective than HP23-E6-IDL against infection by HIV-1 mutants resistant to T20, T2635 and HP23: about 16 fold
[4]
  potency relative to YIK and HP23-E6-IDL in inhibiting HIV-1-mediated cell-cell fusion: about two-fold more potent
[5]
  inhibition of HIV-1IIIB infection, virus preincubated with peptide, washed: could inhibit HIV-1IIIB infection when the unbound peptide was washed away
[6]
  fold more potent than HP23-E6-IDL for inhibiting infection by HIV-1 T20-resistant strains: about 12 fold
[7]; 8 μM versus IC50 against HIV-1IIIB
  non-cytotoxic concentration (8 μM) relative to IC50 for inhibiting HIV-1IIIB infection: about 105 fold
[7]; [14]
  in vitro cytotoxicity to MT-2 cells: none of these peptides exhibited in vitro cytotoxicity
[8]
  fold more potent than HP23-E6-IDL for inhibiting infection by HIV-1 T2635-resistant strains: about 12 fold
[9]; 8 μM versus IC50 against HIV-1Bal
  non-cytotoxic concentration (8 μM) relative to IC50 for inhibiting HIV-1Bal infection: ~131 fold
[9]; [14]
  in vitro cytotoxicity to M7 cells: none of these peptides exhibited in vitro cytotoxicity
[10]
  fold more effective than HP23-E6-IDL against HIV-1Bal infection: 13.3 fold and ~13 fold
  fold more effective than YIK against HIV-1Bal infection: 10.5 fold
[11]
  fold more potent than YIK against HIV-1IIIB infection: 3.6 fold
[12]
  maximum inhibitory activity of serum (fold of IC50; highest dilution-fold of serum causing 50% inhibition): about 4500 fold
  serum inhibitory activity maintained for 15 h post-injection (fold of IC50): > 275 fold
  time of maximum serum inhibitory activity post-injection: about 3 h
